≈ marks a conversion by molar mass, not a printed value.
Experiment: Solubility in water by HPLC
Assay type: physicochemical

- solubility: 1500 µg/mL (≈ 342 µM)
Compound: CC[C@H](C)[C@H](NC(=O)[C@H](C)NC(=O)CNC(=O)[C@H](CCCCN)NC(=O)[C@H](CC(N)=O)NC(=O)[C@H](CO)NC(=O)CNC(=O)[C@@H](NC(=O)[C@H](CC(=O)O)NC(=O)[C@H](C)NC(=O)[C@H](Cc1ccccc1)NC(=O)[C@H](Cc1ccccc1)NC(=O)[C@@H](NC(=O)[C@H](CC(C)C)NC(=O)[C@H](CCCCN)NC(=O)[C@H](CCC(N)=O)NC(=O)[C@H](Cc1cnc[nH]1)NC(=O)[C@H](Cc1cnc[nH]1)NC(=O)[C@@H](NC(=O)[C@H](CCC(=O)O)NC(=O)[C@H](Cc1ccc(O)cc1)NC(=O)CNC(=O)[C@H](CO)NC(=O)[C@H](CC(=O)O)NC(=O)[C@H](Cc1cnc[nH]1)NC(=O)[C@H](CCCNC(=N)N)NC(=O)[C@H](Cc1ccccc1)NC(=O)[C@H](CCC(=O)O)NC(=O)[C@H](C)NC(=O)[C@@H](N)CC(=O)O)C(C)C)C(C)C)C(C)C)C(=O)N[C@H](C(=O)NCC(=O)N[C@@H](CC(C)C)C(=O)N[C@@H](CCSC)C(=O)N[C@H](C(=O)NCC(=O)NCC(=O)N[C@H](C(=O)N[C@H](C(=O)N[C@H](C(=O)N[C@@H](C)C(=O)O)[C@@H](C)CC)C(C)C)C(C)C)C(C)C)[C@@H](C)CC
